From patent publication US20020009441A1, “Reactively modified therapeutic compounds having an extended lifetime in vivo” (priority 1993, published 2002)

What was measured:
[1] = system: plasma proteins; settings: rabbit, in vivo
[2] = system: red blood cells; settings: rabbit, in vivo
Protocol: I. Two rabbits were injected with a solution of N-succinimidyl biotin ester (NHS-biotin)(5 or 50 mg in 200 μl or 1 ml of DMSO) i.v. on day 0.

[3] = blood component in blood; cited from earlier work
[4] = system: anti-avidin titer; assay: Anti-avidin antibody titer by ELISA after i.v. avidin; format: in vivo, rabbit
From the text: II. […] Within about 2 days the titer began to rise rapidly and by 10 days a high anti-avidin titer was observed by ELISA, using avidin coated to microiplates, as evidenced by an OD value of about 600.

O=C1N[C@H]2[C@H](CS[C@H]2CCCCC(=O)ON2C(=O)CCC2=O)N1 [NHS-biotin, N-succinimidyl biotin ester]
duration for which IgG bands could be observed [1]: 9 days
duration of detection of biotin bound to IgM and IgG [1]: up to 33 days
biotinylated red blood cell protein bands at 33 days [2]: no bands could be observed
duration for which biotinylated red blood cell proteins could be observed [2]: 12 days

transferrin: blood protein, mobile blood component
Half-life [3]: 240 h

avidin: egg white avidin, heterologous protein and reciprocal binding member of biotin
time at which anti-avidin titer began to rise rapidly ([4]; 250 μg or 1 mg egg white avidin i.v. after biotin conjugate administration): ≤ 2 days
anti-avidin titer, OD value (ELISA) ([4]; by 10 days, 250 μg or 1 mg egg white avidin i.v. after biotin conjugate administration): about 600
anti-avidin antibody production ([4]; rabbits not previously given biotin conjugate, before i.v. booster of 50 μg avidin on day 6): substantially no production of antibodies
